{"source": "patent US20230137849A1", "about": "“USE OF A COMPOUND OF THE DIURETICS CLASS FOR TREATING CANCER” (AZELEAD, priority 2017, published 2023)", "key": {"4T1 cells": {"test_system": "4T1 cells", "assay_type": "cell-based, mouse", "conditions": "FIG. 8", "description": "The cytotoxicity tests are carried out in cell culture in 96-well plates, on the 4T1 cell line. The cells are maintained in a DMEM culture medium supplemented with 10% fetal calf serum (control condition) or placed in the presence of an MTT solution (3-(4,5-dimethylthiazol-2-yl)-2,5-diphenyl tetrazolium bromide) at 1 mg/ml in DMEM medium supplemented with 10% fetal calf serum (100 μl per well). The cells are incubated at 37° C. and 5% CO2 for 4 hours. The reaction is stopped by the addition of 100 μl of a solution containing 10% of SDS and 0.01 M of HCl. The cells are placed in an incubator at 37° C. and 5% CO2 for 2 hours. The absorbance is measured between 570 and 590 nm. The negative control is performed on a well without cells, containing 200 μl of a 1 mg/ml solution of MTT diluted in DMEM culture medium supplemented with 10% fetal calf serum. The average of the measurements obtained is compared with the control wells: (average value of the compounds treated/average value of the controls)*100=% of the average value.\nThe 4T1 cells are derived from tumors of the mammary gland in mice.\nIn order to study the cytotoxic effects of althiazide in vitro, we analyze the cell death induced by treatment with althiazide by tetrazolium salt labeling MTT (3-(4,5-dimethylthiazol-2-yl)-2,5-diphenyltetrazolium bromide) on 4T1 cells. The amount of living cells in the well is assayed by spectrometry. The results are compared with those obtained after treatment with the control solution (FIG. 8). In this test, we observe a very low mortality of cells after treatment with althiazide (80% of living cells at the highest dose 100 μM). Cells treated with dasatinib have a much higher mortality rate, at much lower doses (80% live cells at the lowest 10 nM dose and 20% live cells at 100 μM)."}, "zebrafish embryo": {"test_system": "zebrafish embryo", "conditions": "in vivo", "description": "The toxicity study is carried out over 72 hours. The embryos are treated at 25 hpf with the doses used for the test of chemical compounds of each of the compounds, in a 96-well plate, in a final volume of 100 μl of the embryonic growth medium. The embryos are incubated 72 h at 28° C. The medium is changed every 24 hours. The survival rate of embryos and the appearance of developmental defects are analyzed daily.\nAt the same time, we analyzed the toxicity of althiazide after balancing with a solution containing althiazide at concentrations of 1 μM, 10 μM, 100 μM, 1000 μM for 24, 48 and 72 hours. The toxicity study was based on analysis of the percentage viability of the embryos after treatment. At concentrations of 1 μM, 10 μM and 100 μM, althiazide causes no toxicity even after 72 hours of treatment. A 50% toxicity is observed after treatment for 24 hours, the althiazide at the concentration of 1 mM."}}, "note": "Where two headings read alike, the source gives them in different places.", "data": [{"smiles": "Cc1nc(Nc2ncc(C(=O)Nc3c(C)cccc3Cl)s2)cc(N2CCN(CCO)CC2)n1", "note": "[dasatinib]", "values": [{"measurement": "living cells (MTT)", "setting": "4T1 cells; highest dose 100 μM", "value": 20, "unit": "%"}, {"measurement": "living cells (MTT)", "setting": "4T1 cells; lowest dose 10 nM", "value": 80, "unit": "%"}, {"measurement": "toxicity on the embryo in comparison with althiazide doses", "setting": "zebrafish embryo", "value": "very high toxicity"}]}]}
